Experimental data published in patent publication US8741951B2, “Non-steroidal compounds for androgen receptor modulation” (CNR—Consiglio Nazionale delle Ricerche, priority 2009, dated 2014).
Where two headings read alike, the source gives them in different places.

Key:
LNCaP cells = assay: SRB in vitro chemosensitivity assay, LNCaP; assay type: cell-based
Method: (§1) The cell lines were maintained as a monolayer at 37° C. and subcultured weekly. Culture medium was composed of RPMI 1640 supplemented with 10% fetal calf serum and 1% glutamine (Mascia Brunelli s.p.a., Milan, Italy). Cells were used in the exponential growth phase in all the experiments.
(§2) Compounds were dissolved in acetone or DMSO (AITES) ([…]) and stored at −20° C. The cell culture containing acetone at the highest concentration was used as the control.
(§3) Sulforhodamine B (SRB) assay was used according to the method by Skehan et al. (JNCI, 1990). Briefly, cells were collected by trypsinization, counted and plated at a density of 5,000 cells/well in 96-well flat-bottomed microtiter plates (100 μl of cell suspension/well). In the chemosensitivity assay, experiments were run in octuplicate, and each experiment was repeated three times. The optical density (OD) of cells was determined at a wavelength of 490 nm by a colorimetric plate reader.
(§4) If ODtreated is above ODzero, treatment has induced a cytostatic effect, whereas if ODtreated is below ODzero, cell killing has occurred. The ODzero depicts the cell number at the moment of drug addition, the ODcontrol reflects the cell number in untreated wells and the ODtreated reflects the cell number in treated wells on the day of the assay.
(§5) FIGS. 2-11 show the cytotoxic activity of the derivative compounds of the invention on the LNCaP and LNCaP-AR cell lines. The authors examined the antitumour activity of the compounds for which the synthesis is described above, in the hormone-sensitive prostate cancer cell line LNCaP and in its derivative cell line LNCaP-AR, expressing high level of AR and with hormone refractory prostate cancer (HRPC) features. The novel compounds were tested at the increasing concentrations of […], 0.2, 2.0, and 20.0 μM. The highest dose used was chosen on the basis of the clinically achievable peak plasma concentration reported in the literature for bicalutamide (Cockshott I D. Clin Pharmacokinet. 2004; 43(13): 855-78). After 144-hr exposure time the cytotoxic effect of the molecules was calculated according to the method of Monks et al. (Monks A, Scudiero D, Skehan P, et al. Feasibility of a high-flux anticancer drug screen using a diverse panel of cultured human tumor cell lines. J Natl Cancer Inst. 1991; 83: 757-66.)

LNCaP-AR cells = assay: SRB in vitro chemosensitivity assay, LNCaP-AR; assay type: cell-based; settings: for cytotoxic effect (cytostatic / cytocidal), in words: LNCaP-AR
Method: as §1, §2, §3, §4, §5

PC-3 cell line = assay: SRB cytotoxicity, PC-3; assay type: cell-based, human; settings: PC-3 (no AR), 144 h, up to 20 μM
Method: (§6) FIGS. 16-25: cytotoxic effect of compounds (R)-XXIII-2, (R)-XXIII-3, (R)-XXIII-4, (R)-XXIII-5, (R)-XXIII-6, (R)-XXIII-7, (R)-XXIII-8, (R)-XXIII-9, (R)-XXIII-10, (R)-XXIV-9 on PC-3 and DU-145 cell lines at different concentration (0.02, 0.2, 2, 20 μM) after 144 h exposure. On the x-axis is reported the concentration, while on the y-axis is reported the inhibition of the net growth (% net growth).
as §3, §4

DU145 cell line = assay: SRB cytotoxicity, DU145; assay type: cell-based, human; settings: DU145 (no AR), 144 h, up to 20 μM
Method: as §6, §3, §4

[1] = system: human hepatoblastoma cell line HepG2; assay: Cytotoxic activity on HepG2 (hepato-toxicity); assay type: cell-based; settings: HepG2, up to highest concentration tested
Method: as §3, §4
FIG. 27-36 show the cytotoxic activity of the drugs on the human hepatoblastoma cell line HepG2. The authors evaluated in vitro the potential hepato-toxicity of some of the novel compounds on HepG2 cell line, a human hepatoblastoma cell line that retains the specialized function of normal hepatocytes [Knowles B B, Howe C C, Aden D P. Human hepatocellular carcinoma cell lines secretes the major plasma proteins and hepatitis B surface antigen. Science 1980, 209:497-499; Aden D P, Vogel A, Plortkin S, Damjanov I, Knowles B B. Controlled synthesis of HBS Ag in a differentiated human liver carcinoma-derived cell line. Nature, 1979, 282:615-616].

[2] = biological target: T1, human androgen receptor (hAR) (Homo sapiens, UniProt P10275); assay: hAR transactivation assay (ARE-luc) in Cos-7 cells; assay type: cell-based
T1 construct: expressed in transfected cells; host or cells: Cos-7
T1 sequence (P10275 1-920): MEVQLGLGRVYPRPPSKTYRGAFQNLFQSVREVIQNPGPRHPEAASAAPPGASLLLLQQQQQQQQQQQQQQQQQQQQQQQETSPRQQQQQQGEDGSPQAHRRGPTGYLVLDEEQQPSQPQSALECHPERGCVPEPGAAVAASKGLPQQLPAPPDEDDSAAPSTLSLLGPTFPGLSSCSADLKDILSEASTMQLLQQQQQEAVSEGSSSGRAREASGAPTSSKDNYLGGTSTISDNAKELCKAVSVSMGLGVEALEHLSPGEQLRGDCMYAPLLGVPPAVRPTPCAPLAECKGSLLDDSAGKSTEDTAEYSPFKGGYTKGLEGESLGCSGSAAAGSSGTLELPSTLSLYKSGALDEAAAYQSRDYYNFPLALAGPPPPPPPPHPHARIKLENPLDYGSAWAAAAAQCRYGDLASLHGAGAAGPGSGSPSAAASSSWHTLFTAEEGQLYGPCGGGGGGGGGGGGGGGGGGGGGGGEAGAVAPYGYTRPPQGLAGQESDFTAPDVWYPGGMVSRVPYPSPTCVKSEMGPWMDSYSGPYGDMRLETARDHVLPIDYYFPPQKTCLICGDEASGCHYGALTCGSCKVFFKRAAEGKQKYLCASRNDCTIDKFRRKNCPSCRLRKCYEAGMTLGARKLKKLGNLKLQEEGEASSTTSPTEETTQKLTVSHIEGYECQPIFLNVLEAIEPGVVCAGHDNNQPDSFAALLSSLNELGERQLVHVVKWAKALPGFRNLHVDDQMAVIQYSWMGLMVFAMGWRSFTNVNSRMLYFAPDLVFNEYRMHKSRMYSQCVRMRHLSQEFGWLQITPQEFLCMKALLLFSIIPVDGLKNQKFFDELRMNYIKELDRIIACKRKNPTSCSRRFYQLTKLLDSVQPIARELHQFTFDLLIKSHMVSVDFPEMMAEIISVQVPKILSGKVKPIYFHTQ
Text: The cDNA coding hAR was cloned into the pSG5 expression vector as reported previously [Chang, C. S., J. Kokontis, and S. T. Liao 1988 Molecular cloning of human and rat complementary DNA encoding androgen receptors Science 240:324-326].
The 3416 construct (ARE-Luc), containing four copies of the wild-type slp-HRE2 (5′-TGGTCAgccAGTTCT-3′) was cloned in the NheI site in pTK-TATA-Luc [Verrijdt, G., E. Schoenmakers, A. Haelens, B. Peeters, G. Verhoeven, W. Rombauts, and F. Claessens 2000 Change of specificity mutations in androgen selective enhancers J. Biol. Chem. 275:12298-12305].
For androgen-stimulated transcriptional analysis, 32×10^4 Cos-7 cells were plated in phenol red-free DMEM containing 5% charcoal-stripped serum. After 48 h, the cells were transfected by Superfect (Qiagen) with 0.3 μg of 3416-pTK-TATA-Luc construct, together with 1.5 μg of either pSG5-empty plasmid or pSG5-hAR expressing plasmid. […] When indicated, the synthetic compounds were added alone to the cell medium. […] It was dissolved in 0.001% (final concentration) ethanol. Control cells were treated with the vehicle alone. Lysates were prepared and the luciferase activity was measured using a luciferase assay system (Promega). The results were corrected using CH110-expressed beta-galactosidase activity (Amersham Biosciences) and luciferase activity was expressed as fold induction. Results were obtained from two or three different experiments, each performed in duplicate. Mean and SEM are shown.

[3] = Homo sapiens, LNCaP, 144 h, read-out: LC50, LNCaP cells, 144 h exposure, up to 20 μM
[4] = read-out: LC50, LNCaP cells, 144 h exposure, up to 20 μM
[5] = LNCaP-AR cells, 144 h exposure, up to 20 μM
[6] = LNCaP cells, 144 h exposure, up to 20 μM

Compound: N#Cc1ccc(OCC(O)(Cc2ccccc2)C(=O)Nc2ccc(C#N)c(C(F)(F)F)c2)cc1 (stereo in doubt) [(R)-XXIV-9]
- GI50 (LNCaP cells; Homo sapiens, LNCaP, 144 h): 6.4 µM
- LC50 (LNCaP cells; [3]): 16.2 to 20 µM
- cytotoxic effect (cytostatic / cytocidal), in words (LNCaP cells; LNCaP, 144 h, up to 20 μM): cell killing activity
- LC50 (LNCaP cells; [4]): 17.4 µM
- GI50 (LNCaP-AR cells; Homo sapiens, LNCaP/AR, 144 h): 7.1 µM
- LC50 (LNCaP-AR cells; [5]): n.r.
- cytotoxic effect (cytostatic / cytocidal), in words (LNCaP-AR cells; 144 h, up to 20 μM): cell killing activity
- cytotoxic activity, in words (PC-3 cell line): maintain their cytostatic and cytocidal activity
- cytotoxic activity, in words (DU145 cell line): maintain their cytostatic and cytocidal activity
- hepato-toxicity, in words [1]: did not display toxicity

Compound: C[C@](O)(CS(=O)(=O)c1ccc(F)cc1)C(=O)Nc1ccc(C#N)c(C(F)(F)F)c1 [(R)-Bicalutamide, reference compound]
- GI50 (LNCaP cells; Homo sapiens, LNCaP cells, 144 h exposure, up to 20 μM, read-out: GI50): 1.8 µM
- LC50 (LNCaP cells; [6]): n.r.^a
- LC50 (LNCaP cells; LNCaP cells, 144 h exposure, up to 20 μM, listed as bicalutamide): not observed
- GI50 (LNCaP-AR cells; [5]): n.r.
- LC50 (LNCaP-AR cells; [5]): n.r.
- LC50 (LNCaP-AR cells; LNCaP-AR cells, 144 h exposure, up to 20 μM, listed as bicalutamide): not observed

Compound: CC[C@](O)(CS(=O)(=O)c1ccc(F)cc1)C(=O)Nc1ccc(C#N)c(C(F)(F)F)c1 [(R)-XXIII-2]
- GI50 (LNCaP cells; [6]): n.r.
- LC50 (LNCaP cells; [6]): n.r.
- cytotoxic effect (cytostatic / cytocidal), in words (LNCaP cells; LNCaP, 144 h, up to 20 μM): weak cytostatic effect
- GI50 (LNCaP-AR cells; [5]): n.r.
- LC50 (LNCaP-AR cells; [5]): n.r.
- cytotoxic effect (cytostatic / cytocidal), in words (LNCaP-AR cells; 144 h, up to 20 μM): weak cytostatic effect
- cytotoxic activity, in words (PC-3 cell line): negligible cytotoxic activity
- cytotoxic activity, in words (DU145 cell line): negligible cytotoxic activity
- hepato-toxicity, in words [1]: did not display toxicity

Compound: N#Cc1ccc(NC(=O)[C@](O)(Cc2ccccc2)CS(=O)(=O)c2ccc(F)cc2)cc1C(F)(F)F [(R)-XXIII-3]
- GI50 (LNCaP cells; Homo sapiens, LNCaP, 144 h): 1.8 µM
- LC50 (LNCaP cells; [6]): n.r.
- cytotoxic effect (cytostatic / cytocidal), in words (LNCaP cells; LNCaP, 144 h, up to 20 μM): suppress completely the cell growth
- GI50 (LNCaP-AR cells; Homo sapiens, LNCaP/AR, 144 h): 6.2 µM
- LC50 (LNCaP-AR cells; [5]): n.r.
- cytotoxic effect (cytostatic / cytocidal), in words (LNCaP-AR cells; 144 h, up to 20 μM): suppress completely the cell growth
- cytotoxic activity, in words (PC-3 cell line): negligible cytotoxic activity
- cytotoxic activity, in words (DU145 cell line): negligible cytotoxic activity
- hepato-toxicity, in words [1]: did not display toxicity
- inhibition of R1881-induced AR transcriptional activation (antagonistic activity), in words ([2]; compound 10 μM with 10 nM R1881): A more robust inhibition
- agonistic activity on AR transcription, in words ([2]; compound alone, 10 nM to 1 μM or 10 μM): do not exhibit agonistic activity

Compound: N#Cc1ccc(C[C@](O)(CS(=O)(=O)c2ccc(F)cc2)C(=O)Nc2ccc(C#N)c(C(F)(F)F)c2)cc1 [(R)-XXIII-7]
- GI50 (LNCaP cells; Homo sapiens, LNCaP, 144 h): 1.4 µM
- LC50 (LNCaP cells; [3]): 16.2 to 20 µM
- cytotoxic effect (cytostatic / cytocidal), in words (LNCaP cells; LNCaP, 144 h, up to 20 μM): cytocidal effect
- LC50 (LNCaP cells; [4]): 20 µM
- GI50 (LNCaP-AR cells; Homo sapiens, LNCaP/AR, 144 h): 1.8 µM
- LC50 (LNCaP-AR cells; [5]): n.r.
- cytotoxic activity, in words (PC-3 cell line): negligible cytotoxic activity
- cytotoxic activity, in words (DU145 cell line): negligible cytotoxic activity
- hepato-toxicity, in words [1]: did not display toxicity

Compound: N#Cc1ccc(NC(=O)[C@](O)(Cc2cc(F)cc(F)c2)CS(=O)(=O)c2ccc(F)cc2)cc1C(F)(F)F [(R)-XXIII-9]
- GI50 (LNCaP cells; Homo sapiens, LNCaP, 144 h): 5.7 µM
- LC50 (LNCaP cells; [3]): 16.2 to 20 µM
- cytotoxic effect (cytostatic / cytocidal), in words (LNCaP cells; LNCaP, 144 h, up to 20 μM): cell killing activity
- LC50 (LNCaP cells; [4]): 19.7 µM
- GI50 (LNCaP-AR cells; Homo sapiens, LNCaP/AR, 144 h): 8.2 µM
- LC50 (LNCaP-AR cells; [5]): n.r.
- cytotoxic effect (cytostatic / cytocidal), in words (LNCaP-AR cells; 144 h, up to 20 μM): cell killing activity
- cytotoxic activity, in words (PC-3 cell line): maintain their cytostatic and cytocidal activity reaching LC50 values
- cytotoxic activity, in words (DU145 cell line): maintain their cytostatic and cytocidal activity reaching LC50 values
- LC50 [1]: not able to reach LC50 value
- hepato-toxicity, in words [1]: Hepato-toxicity was observed

Compound: N#Cc1ccc(NC(=O)[C@](O)(Cc2cccc3ccccc23)CS(=O)(=O)c2ccc(F)cc2)cc1C(F)(F)F [(R)-XXIII-10]
- GI50 (LNCaP cells; Homo sapiens, LNCaP, 144 h): 6.1 µM
- LC50 (LNCaP cells; [3]): 16.2 to 20 µM
- cytotoxic effect (cytostatic / cytocidal), in words (LNCaP cells; LNCaP, 144 h, up to 20 μM): cell killing activity
- LC50 (LNCaP cells; [4]): 19.7 µM
- GI50 (LNCaP-AR cells; Homo sapiens, LNCaP/AR, 144 h): 8.3 µM
- LC50 (LNCaP-AR cells; [5]): n.r.
- cytotoxic effect (cytostatic / cytocidal), in words (LNCaP-AR cells; 144 h, up to 20 μM): cell killing activity
- cytotoxic activity, in words (PC-3 cell line): maintain their cytostatic and cytocidal activity reaching LC50 values
- cytotoxic activity, in words (DU145 cell line): maintain their cytostatic and cytocidal activity reaching LC50 values
- LC50 [1]: not able to reach LC50 value
- hepato-toxicity, in words [1]: Hepato-toxicity was observed
